Results reported in patent US9051310B2, “Nicotinamide derivative or salt thereof” (FUJIFILM Corporation, priority 2011, dated 2015).

Experiments:
[1] = biological target: T1, glutathione S-transferase (GST)-linked full-length human Syk protein (Homo sapiens, UniProt P43405); experiment: Syk enzyme assay; format: biochemical; conditions: 0.83 nM Syk, time-resolved fluorescence; read-out: IC50 of Syk-inhibitory activity
T1 construct: glutathione S-transferase (GST)-linked full-length human Syk protein; purchased Carna Biosciences; host or cells: Baculovirus expression system
Outline: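 Phosphotyrosine on a biotin-peptide substrate (0.5 μM) was read by time-resolved fluorescence at 615 and 665 nm with Eu-anti-pTyr antibody and APC-streptavidin after 1 h EDTA stop.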

[2] = test system: THP-1 cells (phagocytosis of opsonized Escherichia coli); experiment: Antibody-dependent phagocytosis assay; format: cell-based; conditions: Homo sapiens; IFNγ differentiated THP-1 cells, opsonized pHrodo Escherichia coli, 3 hours; read-out: IC50 upon phagocytosis inhibition
Experimental: THP-1 cells (2×10^5 cells/ml), which were human monocytoid cells, were cultured in the presence of 10 ng/ml IFNγ for 2 days, and they were induced to differentiate into macrophage-like cells. The differentiation-induced THP-1 cells were recovered, and the cells (5×10^4 cells/well) were then allowed to react with a predetermined concentration of test compound at room temperature for 30 minutes. Thereafter, Escherichia coli (Life Technologies) labeled with a pH-sensitive dye (pHrodo) was subjected to opsonization using an anti-Escherichia coli antibody (Life Technologies). Then, the resultant was added to the THP-1 cells obtained above, followed by incubation at 37° C. for 3 hours. Opsonized Escherichia coli and cell-permeable fluorescent dye (Calcein AM) were simultaneously added thereto, followed by quantitative determination of phagocytosis of opsonized Escherichia coli in viable cells using an IN Cell Analyzer.

| IC50 [1] [µM] | IC50 [2] [µM] | Structure (SMILES) |
| --- | --- | --- |
| < 0.01 | < 1 | Cn1nc(OC(F)F)c2cc(Nc3nc(N[C@@H]4CCCC[C@@H]4N)c(F)cc3C(N)=O)ccc21 [Example 2-169, 6-(((1R,2S)-2-aminocyclohexyl)amino)-2-((3-(difluoromethoxy)-1-methyl-1H-indazol-5-yl)amino)-5-fluoronicotinamide] |
| < 0.01 | < 1 | COCCn1nc(OC)c2cc(Nc3nc(N[C@@H](CN)CC(C)C)c(F)cc3C(N)=O)ccc21 [Example 2-124, (R)-6-((1-amino-4-methylpentan-2-yl)amino)-5-fluoro-2-((3-methoxy-1-(2-methoxyethyl)-1H-indazol-5-yl)amino)nicotinamide] |
| < 0.01 | 1 to 3 | COCCn1nc(OC(F)F)c2cc(Nc3nc(N[C@H](COC)[C@H](C)N)c(F)cc3C(N)=O)ccc21 [Example 2-178, 6-(((2S,3S)-3-amino-1-methoxybutan-2-yl)amino)-2-((3-(difluoromethoxy)-1-(2-methoxyethyl)-1H-indazol-5-yl)amino)-5-fluoronicotinamide] |
| 0.01 to 0.05 | 1 to 3 | NC(=O)c1cc(F)c(N[C@@H]2CCOC[C@@H]2N)nc1Nc1ccnc(N2CCOCC2)c1F [Example 2-231, 6-(((3R,4R)-3-aminotetrahydro-2H-pyran-4-yl)amino)-5-fluoro-2-((3-fluoro-2-morpholinopyridin-4-yl)amino)nicotinamide] |
| < 0.01 | 1 to 3 | CCCC[C@@H](Nc1nc(Nc2cncc3c2cnn3CC(F)F)c(C(N)=O)cc1F)[C@H](C)N [Example 2-399, 6-(((2S,3R)-2-aminoheptan-3-yl)amino)-2-((1-(2,2-difluoroethyl)-1H-pyrazolo[3,4-c]pyridin-4-yl)amino)-5-fluoronicotinamide] |
| < 0.01 | 1 to 3 | NC(=O)c1cc(F)c(N[C@@H]2CCCC[C@@H]2N)nc1Nc1cncc2c1cnn2CC(F)F [Example 2-393, 6-(((1R,2S)-2-aminocyclohexyl)amino)-2-((1-(2,2-difluoroethyl)-1H-pyrazolo[3,4-c]pyridin-4-yl)amino)-5-fluoronicotinamide] |
| 0.01 to 0.05 | < 1 | CCOC[C@@H](Nc1nc(Nc2cncc3c2cnn3CC)c(C(N)=O)cc1F)[C@H](C)N [Example 2-324, 6-(((2S,3S)-3-amino-1-ethoxybutan-2-yl)amino)-2-((1-ethyl-1H-pyrazolo[3,4-c]pyridin-4-yl)amino)-5-fluoronicotinamide] |
| 0.05 to 0.1 | < 1 | NC[C@@H](Cc1ccccc1)Nc1nc(Nc2cnc(N3CCOCC3)c(F)c2)c(C(N)=O)cc1F [Example 2-365, (R)-6-((1-amino-3-phenylpropan-2-yl)amino)-5-fluoro-2-((5-fluoro-6-morpholinopyridin-3-yl)amino)nicotinamide] |
| 0.01 to 0.05 | 1 to 3 | CSCC[C@@H](Nc1nc(Nc2cnc(C)c(-n3nccn3)c2)c(C(N)=O)cc1F)[C@H](C)N [Example 2-343, 6-(((3R,4S)-4-amino-1-(methylthio)pentan-3-yl)amino)-5-fluoro-2-((6-methyl-5-(2H-1,2,3-triazol-2-yl)pyridin-3-yl)amino)nicotinamide] |
| 0.01 to 0.05 | 1 to 3 | CCn1ncc2c(Nc3nc(N[C@H](COC)[C@H](C)N)c(F)cc3C(N)=O)cncc21 [Example 2-323, 6-(((2S,3S)-3-amino-1-methoxybutan-2-yl)amino)-2-((1-ethyl-1H-pyrazolo[3,4-c]pyridin-4-yl)amino)-5-fluoronicotinamide] |
| < 0.01 | 1 to 3 | CCC[C@@H](Nc1nc(Nc2ccc3c(c2)c(OC(F)F)nn3C)c(C(N)=O)cc1F)[C@H](C)N [Example 2-349, 6-(((2S,3R)-2-aminohexan-3-yl)amino)-2-((3-(difluoromethoxy)-1-methyl-1H-indazol-5-yl)amino)-5-fluoronicotinamide] |
| < 0.01 | 3 to 6 | NC(=O)c1cc(F)c(N[C@@H]2CCOC[C@@H]2N)nc1Nc1cncc2c1cnn2CC(F)F [Example 2-394, 6-(((3R,4R)-3-aminotetrahydro-2H-pyran-4-yl)amino)-2-((1-(2,2-difluoroethyl)-1H-pyrazolo[3,4-c]pyridin-4-yl)amino)-5-fluoronicotinamide] |
| < 0.01 | 1 to 3 | CC(C)C[C@@H](Nc1nc(Nc2cnc3c(c2)c(N(C)C)nn3C)c(C(N)=O)cc1F)[C@H](C)N [Example 2-292, 6-(((2S,3R)-2-amino-5-methylhexan-3-yl)amino)-2-((3-(dimethylamino)-1-methyl-1H-pyrazolo[3,4-b]pyridin-5-yl)amino)-5-fluoronicotinamide] |
| 0.01 to 0.05 | 1 to 3 | CCCC[C@@H](Nc1nc(Nc2cnc3c(c2)c(N(C)C)nn3C)c(C(N)=O)cc1F)[C@H](C)N [Example 2-291, 6-(((2S,3R)-2-aminoheptan-3-yl)amino)-2-((3-(dimethylamino)-1-methyl-1H-pyrazolo[3,4-b]pyridin-5-yl)amino)-5-fluoronicotinamide] |
| 0.01 to 0.05 | 1 to 3 | CCOc1ncc(Nc2nc(N[C@H](C3CC3)[C@H](C)N)c(F)cc2C(N)=O)cc1-n1ccnn1 [Example 2-163, 6-(((1R,2S)-2-amino-1-cyclopropylpropyl)amino)-2-((6-ethoxy-5-(1H-1,2,3-triazol-1-yl)pyridin-3-yl)amino)-5-fluoronicotinamide] |
| 0.01 to 0.05 | 3 to 6 | COC[C@@H](Nc1nc(Nc2cnc(C)c(-n3nccn3)c2)c(C(N)=O)cc1F)[C@H](C)N [Example 2-197, 6-(((2S,3S)-3-amino-1-methoxybutan-2-yl)amino)-5-fluoro-2-((6-methyl-5-(2H-1,2,3-triazol-2-yl)pyridin-3-yl)amino)nicotinamide] |
| < 0.01 | < 1 | CN(C)c1c2cc(Nc3nc(N[C@@H]4CCCC[C@@H]4N)c(F)cc3C(N)=O)ccc2nn1C [Example 2-13, 6-(((1R,2S)-2-aminocyclohexyl)amino)-2-((3-(dimethylamino)-2-methyl-2H-indazol-5-yl)amino)-5-fluoronicotinamide] |
| < 0.01 | 1 to 3 | CC[C@@H](Nc1nc(Nc2cncc3c2cnn3CC)c(C(N)=O)cc1F)[C@H](C)N [Example 2-318, 6-(((2S,3R)-2-aminopentan-3-yl)amino)-2-((1-ethyl-1H-pyrazolo[3,4-c]pyridin-4-yl)amino)-5-fluoronicotinamide] |
| 0.01 to 0.05 | < 1 | NC(=O)c1cc(F)c(N[C@@H]2CCCC[C@@H]2N)nc1Nc1cnc(OC(F)F)c(-n2nccn2)c1 [Example 2-238, 6-(((1R,2S)-2-aminocyclohexyl)amino)-2-((6-(difluoromethoxy)-5-(2H-1,2,3-triazol-2-yl)pyridin-3-yl)amino)-5-fluoronicotinamide] |
| 0.01 to 0.05 | 1 to 3 | COc1ncc(Nc2nc(N[C@H](C3CC3)[C@H](C)N)c(F)cc2C(N)=O)cc1-n1nccn1 [Example 2-113, 6-(((1R,2S)-2-amino-1-cyclopropylpropyl)amino)-5-fluoro-2-((6-methoxy-5-(2H-1,2,3-triazol-2-yl)pyridin-3-yl)amino)nicotinamide] |
| < 0.01 | < 1 | C[C@H](N)[C@H](Nc1nc(Nc2ccc3ncccc3c2)c(C(N)=O)cc1F)c1ccccc1 [Example 2-312, 6-(((1R,2S)-2-amino-1-phenylpropyl)amino)-5-fluoro-2-(quinolin-6-ylamino)nicotinamide] |
| < 0.01 | 3 to 6 | Cc1ncc(Nc2nc(N[C@H](c3ccccc3)[C@H](C)N)c(F)cc2C(N)=O)cc1-n1nccn1 [Example 2-313, 6-(((1R,2S)-2-amino-1-phenylpropyl)amino)-5-fluoro-2-((6-methyl-5-(2H-1,2,3-triazol-2-yl)pyridin-3-yl)amino)nicotinamide] |
| 0.01 to 0.05 | 1 to 3 | COCCOc1ncc(Nc2nc(N[C@H](C3CCC3)[C@H](C)N)c(F)cc2C(N)=O)cc1F [Example 2-116, 6-(((1R,2S)-2-amino-1-cyclobutylpropyl)amino)-5-fluoro-2-((5-fluoro-6-(2-methoxyethoxy)pyridin-3-yl)amino)nicotinamide] |
| 0.01 to 0.05 | 1 to 3 | COc1ncc(Nc2nc(N[C@H](C3CCC3)[C@H](C)N)c(F)cc2C(N)=O)cc1-n1ccnn1 [Example 2-166, 6-(((1R,2S)-2-amino-1-cyclobutylpropyl)amino)-5-fluoro-2-((6-methoxy-5-(1H-1,2,3-triazol-1-yl)pyridin-3-yl)amino)nicotinamide] |
| < 0.01 | 1 to 3 | CCC[C@@H](Nc1nc(Nc2cncc3c2cnn3CC(F)F)c(C(N)=O)cc1F)[C@H](C)N [Example 2-397, 6-(((2S,3R)-2-aminohexan-3-yl)amino)-2-((1-(2,2-difluoroethyl)-1H-pyrazolo[3,4-c]pyridin-4-yl)amino)-5-fluoronicotinamide] |
| 0.01 to 0.05 | 1 to 3 | COCCn1nc(OC)c2cc(Nc3nc(N[C@H](COC)[C@H](C)N)c(F)cc3C(N)=O)ccc21 [Example 2-128, 6-(((2S,3S)-3-amino-1-methoxybutan-2-yl)amino)-5-fluoro-2-((3-methoxy-1-(2-methoxyethyl)-1H-indazol-5-yl)amino)nicotinamide] |
